How the values were obtained:
Collagenase-3 (MMP-13) = Collagenase-3 (MMP-13) (Homo sapiens, UniProt P45452); test: Collagenase-3 (MMP-13) inhibitory activity, fluorogenic peptide substrate cleavage; format: biochemical; settings: read-out: MMP13 IC50
Summary of the method: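 Recombinant pro-MMP-13 activated with 1 mM APMA; inhibitor preincubated 60 min, then 5 μM MCA-Lys-Pro-Leu-Gly-Leu-Dpa-Ala-Arg-NH2 added in Tris-Cl pH 7.5 buffer with Zn2+, Ca2+, Brij-35, 1.0% DMSO, 20-25 °C. Fluorescence (ex 325/em 405 nm) read after 60 min; IC50 versus uninhibited control.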

Gelatinase (MMP-2) = biological target: T1, Gelatinase (MMP-2) (Homo sapiens, UniProt P08253); test: Gelatinase (MMP-2) inhibitory activity, fluorogenic peptide substrate cleavage; format: biochemical; settings: read-out: MMP02 IC50
T1 sequence (P08253 110-660): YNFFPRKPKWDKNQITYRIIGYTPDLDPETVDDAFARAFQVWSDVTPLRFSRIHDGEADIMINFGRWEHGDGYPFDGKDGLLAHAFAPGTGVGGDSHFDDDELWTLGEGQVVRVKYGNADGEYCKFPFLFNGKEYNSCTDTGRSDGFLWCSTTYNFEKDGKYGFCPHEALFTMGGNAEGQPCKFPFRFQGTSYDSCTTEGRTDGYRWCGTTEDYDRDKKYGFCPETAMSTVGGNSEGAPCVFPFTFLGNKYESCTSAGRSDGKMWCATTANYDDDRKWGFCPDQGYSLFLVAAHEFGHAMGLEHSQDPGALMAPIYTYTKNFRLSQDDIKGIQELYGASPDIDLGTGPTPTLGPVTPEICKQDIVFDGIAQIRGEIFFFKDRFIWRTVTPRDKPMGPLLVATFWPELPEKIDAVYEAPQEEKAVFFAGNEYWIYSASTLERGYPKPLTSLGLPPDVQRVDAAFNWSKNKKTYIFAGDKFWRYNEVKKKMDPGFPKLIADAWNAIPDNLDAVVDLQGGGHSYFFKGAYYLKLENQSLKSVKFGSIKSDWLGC
Summary of the method: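 Fluorogenic assay with MCA-Lys-Pro-Leu-Gly-Leu-Dpa-Ala-Arg-NH2 at 5 μM in Tris-Cl pH 7.5 buffer with ZnCl2, CaCl2, Brij-35 and 1.0% DMSO, 20-25 °C. Enzyme preincubated with inhibitor 60 min; fluorescence (ex 325/em 405 nm) read 60 min after substrate addition. IC50 relative to uninhibited control.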

SMILES: COc1ccc(C(=O)c2cccc(S(N)(=O)=O)c2)cc1 [Example 1, 3-(4-Methoxy-benzoyl)-benzenesulfonamide]
- IC50 (Collagenase-3 (MMP-13)): 2.49 µM
- IC50 (Gelatinase (MMP-2)): 1.92 µM
- melting point: 119 to 122 °C

SMILES: COc1ccc(C(=O)c2ccc(Cl)c(S(N)(=O)=O)c2)cc1 [Example 3, 2-Chloro-5-(4-methoxy-benzoyl)-benzenesulfonamide]
- IC50 (Collagenase-3 (MMP-13)): 2.02 µM
- IC50 (Gelatinase (MMP-2)): 5.18 µM
- melting point: 156 to 158 °C

SMILES: C#Cc1ccc(C(=O)c2ccc(Cl)c(S(N)(=O)=O)c2)cc1 [Example 31, 2-Chloro-5-(4-ethynyl-benzoyl)-benzenesulfonamide]
- IC50 (Collagenase-3 (MMP-13)): 12.4 µM
- IC50 (Gelatinase (MMP-2)): 10.4 µM
- melting point: 147 to 149 °C

SMILES: CC(C)CCn1ccc2cc(C(=O)c3ccc(Cl)c(S(N)(=O)=O)c3)ccc21 [Example 117, 2-Chloro-5-[1-(3-methyl-butyl)-1H-indole-5-carbonyl]benzenesulfonamide]
- IC50 (Collagenase-3 (MMP-13)): 23 µM
- IC50 (Gelatinase (MMP-2)): 26.7 µM

SMILES: NS(=O)(=O)c1cc(C(=O)c2ccc3c(-c4ccccc4)c[nH]c3c2)ccc1Cl [Example 118, 2-Chloro-5-(3-phenyl-1H-indole-6-carbonyl)-benzenesulfonamide]
- IC50 (Collagenase-3 (MMP-13)): 1.03 µM
- IC50 (Gelatinase (MMP-2)): 2 µM

SMILES: COc1ccc(-c2c[nH]c3cc(C(=O)c4ccc(Cl)c(S(N)(=O)=O)c4)ccc23)cc1 [Example 119, 2-Chloro-5-[3-(4-methoxy-phenyl)-1H-indole-6-carbonyl]-benzenesulfonamide]
- IC50 (Collagenase-3 (MMP-13)): 6.04 µM
- IC50 (Gelatinase (MMP-2)): 24 µM

SMILES: NS(=O)(=O)c1cc(C(=O)c2ccc3c(-c4ccc(F)cc4)c[nH]c3c2)ccc1Cl [Example 120, 2-Chloro-5-[3-(4-fluoro-phenyl)-1H-indole-6-carbonyl]-benzenesulfonamide]
- IC50 (Collagenase-3 (MMP-13)): 0.95 µM
- IC50 (Gelatinase (MMP-2)): 1.9 µM

SMILES: CC(=O)c1cccc(-c2c[nH]c3cc(C(=O)c4ccc(Cl)c(S(N)(=O)=O)c4)ccc23)c1 [Example 121, 5-[3-(3-Acetyl-phenyl)-1H-indole-6-carbonyl]-2-chloro-benzenesulfonamide]
- IC50 (Collagenase-3 (MMP-13)): 0.59 µM
- IC50 (Gelatinase (MMP-2)): 3.9 µM

SMILES: CC(=O)c1ccc(-c2c[nH]c3cc(C(=O)c4ccc(Cl)c(S(N)(=O)=O)c4)ccc23)cc1 [Example 122, 5-[3-(4-Acetyl-phenyl)-1H-indole-6-carbonyl]-2-chloro-benzenesulfonamide]
- IC50 (Collagenase-3 (MMP-13)): 1.45 µM
- IC50 (Gelatinase (MMP-2)): 12.5 µM

SMILES: CS(=O)(=O)c1cccc(-c2c[nH]c3cc(C(=O)c4ccc(Cl)c(S(N)(=O)=O)c4)ccc23)c1 [Example 123, 2-Chloro-5-[3-(3-methanesulfonyl-phenyl)-1H-indole-6-carbonyl]-benzenesulfonamide]
- IC50 (Collagenase-3 (MMP-13)): 0.39 µM
- IC50 (Gelatinase (MMP-2)): 5.02 µM

SMILES: CS(=O)(=O)c1ccc(-c2c[nH]c3cc(C(=O)c4ccc(Cl)c(S(N)(=O)=O)c4)ccc23)cc1 [Example 124, 2-Chloro-5-[3-(4-methanesulfonyl-phenyl)-1H-indole-6-carbonyl]-benzenesulfonamide]
- IC50 (Collagenase-3 (MMP-13)): 0.54 µM
- IC50 (Gelatinase (MMP-2)): 19.7 µM

SMILES: CCS(=O)(=O)c1ccc(-c2c[nH]c3cc(C(=O)c4ccc(Cl)c(S(N)(=O)=O)c4)ccc23)cc1 [Example 125, 2-Chloro-5-[3-(4-ethanesulfonyl-phenyl)-1H-indole-6-carbonyl]-benzenesulfonamide]
- IC50 (Collagenase-3 (MMP-13)): 1.01 µM
- IC50 (Gelatinase (MMP-2)): > 30 µM

SMILES: NS(=O)(=O)c1cc(C(=O)c2ccc3c(-c4ccc(-c5ccccc5)cc4)c[nH]c3c2)ccc1Cl [Example 126, 5-(3-Biphenyl-4-yl-1H-indole-6-carbonyl)-2-chloro-benzenesulfonamide]
- IC50 (Collagenase-3 (MMP-13)): 10 µM
- IC50 (Gelatinase (MMP-2)): 22.8 µM

SMILES: NS(=O)(=O)c1cc(C(=O)c2ccc3c(-c4ccc5[nH]ccc5c4)c[nH]c3c2)ccc1Cl [Example 129, 5-(1H,1′H-[3,5′]Biindolyl-6-carbonyl)-2-chloro-benzenesulfonamide]
- IC50 (Collagenase-3 (MMP-13)): 1.65 µM
- IC50 (Gelatinase (MMP-2)): 2.95 µM

SMILES: NS(=O)(=O)c1cc(C(=O)c2ccc3c(-c4cccnc4)c[nH]c3c2)ccc1Cl [Example 130, 2-Chloro-5-(3-pyridin-3-yl-1H-indole-6-carbonyl)benzenesulfonamide]
- IC50 (Collagenase-3 (MMP-13)): 0.24 µM
- IC50 (Gelatinase (MMP-2)): 2.62 µM

SMILES: NS(=O)(=O)c1cc(C(=O)c2ccc3c(-c4cncnc4)c[nH]c3c2)ccc1Cl [Example 131, 2-Chloro-5-(3-pyrimidin-5-yl-1H-indole-6-carbonyl)-benzenesulfonamide]
- IC50 (Collagenase-3 (MMP-13)): 0.195 µM
- IC50 (Gelatinase (MMP-2)): 4 µM

SMILES: NS(=O)(=O)c1cc(C(=O)c2ccc3c(-c4ccc(C(=O)N5CCOCC5)cc4)c[nH]c3c2)ccc1Cl [Example 132, 2-Chloro-5-{3-[4-(morpholine-4-carbonyl)-phenyl]-1H-indole-6-carbonyl}-benzenesulfonamide]
- IC50 (Collagenase-3 (MMP-13)): 0.73 µM
- IC50 (Gelatinase (MMP-2)): 16 µM

SMILES: Cc1noc(C)c1-c1c[nH]c2cc(C(=O)c3ccc(Cl)c(S(N)(=O)=O)c3)ccc12 [Example 133, 2-Chloro-5-[3-(3,5-dimethyl-isoxazol-4-yl)-1H-indole-6-carbonyl]-benzenesulfonamide]
- IC50 (Collagenase-3 (MMP-13)): 0.3 µM
- IC50 (Gelatinase (MMP-2)): 23 µM

SMILES: COc1cc(-c2c[nH]c3cc(C(=O)c4ccc(Cl)c(S(N)(=O)=O)c4)ccc23)c(Cl)cn1 [Example 134, 2-Chloro-5-[3-(5-chloro-2-methoxy-pyridin-4-yl)-1H-indole-6-carbonyl]-benzenesulfonamide]
- IC50 (Collagenase-3 (MMP-13)): 0.1 µM
- IC50 (Gelatinase (MMP-2)): 23 µM

SMILES: NS(=O)(=O)c1cc(C(=O)c2ccc3c(-c4ccncc4)c[nH]c3c2)ccc1Cl [Example 135, 2-Chloro-5-(3-pyridin-4-yl-1H-indole-6-carbonyl)-benzenesulfonamide]
- IC50 (Collagenase-3 (MMP-13)): 0.09 µM
- IC50 (Gelatinase (MMP-2)): 1.05 µM

SMILES: NS(=O)(=O)c1cc(C(=O)c2ccc3c(-c4ccnc(Cl)c4)c[nH]c3c2)ccc1Cl [Example 136, 2-Chloro-5-[3-(2-chloro-pyridin-4-yl)-1H-indole-6-carbony]-benzenesulfonamide]
- IC50 (Collagenase-3 (MMP-13)): 0.25 µM
- IC50 (Gelatinase (MMP-2)): 18 µM

SMILES: Cc1cc(-c2c[nH]c3cc(C(=O)c4ccc(Cl)c(S(N)(=O)=O)c4)ccc23)ccn1 [Example 137, 2-Chloro-5-[3-(2-methyl-pyridin-4-yl)-1H-indole-6-carbonyl]-benzenesulfonamide]
- IC50 (Collagenase-3 (MMP-13)): 0.041 µM
- IC50 (Gelatinase (MMP-2)): 3.45 µM

SMILES: CCc1cc(-c2c[nH]c3cc(C(=O)c4ccc(Cl)c(S(N)(=O)=O)c4)ccc23)ccn1 [Example 138, 2-Chloro-5-[3-(2-ethyl-pyridin-4-yl)-1H-indole-6-carbonyl]-benzenesulfonamide]
- IC50 (Collagenase-3 (MMP-13)): 0.06 µM
- IC50 (Gelatinase (MMP-2)): 3.55 µM

SMILES: NS(=O)(=O)c1cc(C(=O)c2ccc3c(-c4ccnc(C5CC5)c4)c[nH]c3c2)ccc1Cl [Example 139, 2-Chloro-5-[3-(2-cyclopropyl-pyridin-4-yl)-1H-indole-6-carbonyl]-benzenesulfonamide]
- IC50 (Collagenase-3 (MMP-13)): 0.068 µM
- IC50 (Gelatinase (MMP-2)): 4.15 µM

SMILES: COCCCc1cc(-c2c[nH]c3cc(C(=O)c4ccc(Cl)c(S(N)(=O)=O)c4)ccc23)ccn1 [Example 140, 2-Chloro-5-{3-[2-(3-methoxy-propyl)-pyridin-4-yl]-1H-indole-6-carbonyl}-benzenesulfonamide]
- IC50 (Collagenase-3 (MMP-13)): 0.007 µM
- IC50 (Gelatinase (MMP-2)): 0.36 µM

SMILES: NS(=O)(=O)c1cc(C(=O)c2ccc3c(-c4ccnc(CCCN5CCOCC5)c4)c[nH]c3c2)ccc1Cl [Example 141, 2-Chloro-5-{3-[2-(3-morpholin-4-yl-propyl)-pyridin-4-yl]-1H-indole-6-carbonyl}-benzenesulfonamide]
- IC50 (Collagenase-3 (MMP-13)): 0.02 µM
- IC50 (Gelatinase (MMP-2)): 1.1 µM

SMILES: CN(C)CCOc1cc(-c2c[nH]c3cc(C(=O)c4ccc(Cl)c(S(N)(=O)=O)c4)ccc23)ccn1 [Example 142, 2-Chloro-5-{3-[2-(2-dimethylamino-ethoxy)-pyridin-4-yl]-1H-indole-6-carbonyl}-benzenesulfonamide]
- IC50 (Collagenase-3 (MMP-13)): 0.017 µM
- IC50 (Gelatinase (MMP-2)): 0.2 µM

SMILES: NS(=O)(=O)c1cc(C(=O)c2ccc3c(-c4ccnc(OCCN5CCOCC5)c4)c[nH]c3c2)ccc1Cl [Example 143, 2-Chloro-5-{3-[2-(2-morpholin-4-yl-ethoxy)-pyridin-4-yl]-1H-indole-6-carbonyl}-benzenesulfonamide]
- IC50 (Collagenase-3 (MMP-13)): 0.15 µM
- IC50 (Gelatinase (MMP-2)): 2.85 µM

SMILES: NS(=O)(=O)c1cc(C(=O)c2ccc3cc[nH]c3c2)ccc1F [Example 144, 2-Fluoro-5-(1H-indole-6-carbonyl)-benzenesulfonamide]
- IC50 (Collagenase-3 (MMP-13)): 0.3 µM
- IC50 (Gelatinase (MMP-2)): 0.39 µM

SMILES: Cc1ccc(C(=O)c2ccc3cc[nH]c3c2)cc1S(N)(=O)=O [Example 145, 5-(1H-Indole-6-carbonyl)-2-methyl-benzenesulfonamide]
- IC50 (Collagenase-3 (MMP-13)): 0.1 µM
- IC50 (Gelatinase (MMP-2)): 0.2 µM

SMILES: NS(=O)(=O)c1cccc(C(=O)c2ccc3cc[nH]c3c2)c1 [Example 146, 3-(1H-Indole-6-carbonyl)-benzenesulfonamide]
- IC50 (Collagenase-3 (MMP-13)): 0.2 µM
- IC50 (Gelatinase (MMP-2)): 0.24 µM

SMILES: Cc1cc(-c2c[nH]c3cc(C(=O)c4ccc(C)c(S(N)(=O)=O)c4)ccc23)ccn1 [Example 147, 2-Methyl-5-[3-(2-methyl-pyridin-4-yl)-1H-indole-6-carbonyl]-benzenesulfonamide]
- IC50 (Collagenase-3 (MMP-13)): 0.02 µM
- IC50 (Gelatinase (MMP-2)): 2.4 µM
